Test results taken from patent US9278925B2, “Substituted 3-(biphenyl-3-yl)-4-hydroxy-8-methoxy-1-azaspiro[4.5]dec-3-en-2-one” (BAYER INTELLECTUAL PROPERTY GMBH, priority 2011, dated 2016).
“And” between values parts separate entries of the source, which are not always exact repeats. Equal entries are not always repeated. Where two headings read alike, the source gives them in different places.

How the values were obtained:
[1] = target: human ACC1 (Homo sapiens, UniProt Q13085); test: Human ACC1 enzyme assay (ADP-Glo); format: biochemical; conditions: individual measurement (measurement no./preparation no. in table), read-out: ACC 1 IC50
Experimental: (§1) Typical concentrations were in the range of 1.75 μl.

[2] = tested on: human ACC1; test: Human ACC1 enzyme assay (ADP-Glo); format: biochemical
Experimental: as §1

[3] = Pharmacokinetic parameters in the rat (i.v. and intragastric); format: in vivo; conditions: for F: oral bioavailability; for t½: terminal
Experimental: Determination of the Pharmacokinetic Parameters of a Test Substance in the Rat and in the Dog For this, the test substances were applied in dissolved form both for intravenous, and for intragastric application, wherein compatible solubilizers such as PEG400 and/or ethanol were used in a compatible amount. […] Administration was as a bolus injection in the male rat and as an infusion in the female dog (15 min) At various time points after the bolus injection, and before and after the 15-minute infusion, blood samples of about 100-150 μl were removed via a catheter either from the jugular vein (rat) or from the saphenous vein (dog). Lithium-heparin was added as anticoagulant to the blood samples and they were stored in a refrigerator until required for further processing. After centrifugation of the samples for 15 min at 3000 rpm, an aliquot of 100 μl was taken from the supernatant (plasma) and was precipitated by adding 400 μl of cold ACN or methanol (absolute). The precipitated samples were frozen-out at […] overnight, then centrifuged again at 3000 rpm for 15 min, before 150 μl of the clear supernatant were removed to determine the concentration. The analysis was effected by means of an Agilent 1200 HPLC system with connected LCMS/MS detection. Calculation of the PK parameters (using PK calculation software, e.g. WinNonLin®): CLplasma: total plasma clearance of the test substance (in 1*kg/h); CLblood: total blood clearance of the test substance (in 1*kg/h), where (CLblood=CLplasma*Cp/Cb); Vss: apparent steady-state distribution volume (in 1/kg); t½: half-life within a specified interval (here: terminal t½, in h); AUCnorm: area under the plasma concentration time profile from time point zero extrapolated to infinity divided by the dose normalized for body weight (in kg*l/h); AUC(0-tn)norm: integrated area under the plasma concentration time profile from time point zero until the last time point at which a plasma concentration was measurable, divided by the dose normalized for body weight (in kg*l/h); Cmax: maximum concentration of the test substance in the plasma (in μg/l); Cmax,norm: maximum concentration of the test substance in the plasma divided by the dose normalized for body weight (in kg/l); Cb/Cp: ratio of the blood to plasma concentration distribution. […] At various time points after administration, blood samples of about 100-150 μl were removed via a catheter either from the jugular vein (rat) or from the saphenous vein (dog). Lithium-heparin was added as anticoagulant to the blood samples and they were stored in a refrigerator until required for further processing. After centrifugation of the samples for 15 min at 3000 rpm, an aliquot of 100 μl was taken from the supernatant (plasma) and was precipitated by adding 400 μl of cold ACN or methanol (absolute). The precipitated samples were frozen-out at −20° C. overnight, then centrifuged at 3000 rpm for 15 min, before 150 μl of the clear supernatant were removed to determine the concentration. The analysis was effected by means of an Agilent 1200 HPLC system with connected LCMS/MS detection. […]

[4] = Maximum tolerated dose (MTD) in female nude mice; format: in vivo, mouse; conditions: for Deaths: 21 days, 1 administration per day; for MTD at 21 days: female, NMRI-nude (nu/nu), mouse, in vivo, 21-day treatment, administration once per day, oral
Experimental: To this end, initially the maximum tolerable dose (MTD) was determined using the following protocol:
The MTD was defined as the highest dose which could be administered without any animal dying during the treatment phase, and without any body weight loss of more than 10% compared to the initial weight.
(§2) Administration route: oral
• (Solutol HS15: polyoxyethylene ester of 12-hydroxystearic acid) Administration volume: 10 ml/kg: Protocol: see Table 7
The treatment phase was followed by an observation phase of 21 days.

[5] = tested on: human PC-3 cells; conditions: for T/C: final tumour weight
Experimental: Xenograft models in immunosuppressed mice were used to determine the antitumour activity in living organisms.
Use was made primarily of a prostate carcinoma model with hormone-independent human PC-3 cells in male nude mice (NMRI-nude (nu/nu) mice, Taconic M&B A/S). To this end, 3 million tumour cells (suspended in medium+Matrigel 1:1, final 0.1 ml) were injected subcutaneously into the side of each animal. When the tumours extended to an area of 20-30 mm^2, the mice were randomized into therapy groups and therapy was initiated. […] At this point in time, the experiment was terminated in all groups and the prepared tumours were weighed.
The T/C value was calculated as primary success parameter using the effect on the final tumour weight: mean tumour weight in the treatment group divided by mean of the tumour weight in the vehicle group.
as §2
Vehicle: PEG400/ethanol/Solutol HS 15 (70/5/25, v/v/v)
Administration volume: 10 ml/kg
Number of mice: see Table 8

[6] = Effective AUC from plasma concentration time profile in the PC3 tumour model; format: in vivo, mouse
Experimental: (§3) The human pharmacokinetic (PK) parameters (Table 9) were predicted based on the in vivo PK parameters obtained for rats (single species scaling), taking into account the interspecies differences in the free fraction (fu) in the plasma. The effective AUC (area under curve) was determined based on the measured plasma concentration time profile for in vivo efficacy in the PC3 tumour model of the mouse (nu/nu mouse).

[7] = Prediction of human pharmacokinetic parameters and human therapeutic dosage (single species scaling from rat); conditions: for pred. CL (human): predicted (fu-corrected) from rat PK
Experimental: as §3, with “mouse). The therapeutic human dosage was determined using the predicted human clearance (CL), assuming 100% bioavailability (F=1) and using the effective AUC in the animal model according to the formula below: […]” for “mouse).”

[8] = target: human ACC2 (Homo sapiens (Human), UniProt O00763); test: Human ACC2 enzyme assay (ADP-Glo); conditions: read-out: ACC 2 IC50, individual measurement (measurement no./preparation no. in table)
Sequence of human ACC2 (O00763 27-2458 limits assumed): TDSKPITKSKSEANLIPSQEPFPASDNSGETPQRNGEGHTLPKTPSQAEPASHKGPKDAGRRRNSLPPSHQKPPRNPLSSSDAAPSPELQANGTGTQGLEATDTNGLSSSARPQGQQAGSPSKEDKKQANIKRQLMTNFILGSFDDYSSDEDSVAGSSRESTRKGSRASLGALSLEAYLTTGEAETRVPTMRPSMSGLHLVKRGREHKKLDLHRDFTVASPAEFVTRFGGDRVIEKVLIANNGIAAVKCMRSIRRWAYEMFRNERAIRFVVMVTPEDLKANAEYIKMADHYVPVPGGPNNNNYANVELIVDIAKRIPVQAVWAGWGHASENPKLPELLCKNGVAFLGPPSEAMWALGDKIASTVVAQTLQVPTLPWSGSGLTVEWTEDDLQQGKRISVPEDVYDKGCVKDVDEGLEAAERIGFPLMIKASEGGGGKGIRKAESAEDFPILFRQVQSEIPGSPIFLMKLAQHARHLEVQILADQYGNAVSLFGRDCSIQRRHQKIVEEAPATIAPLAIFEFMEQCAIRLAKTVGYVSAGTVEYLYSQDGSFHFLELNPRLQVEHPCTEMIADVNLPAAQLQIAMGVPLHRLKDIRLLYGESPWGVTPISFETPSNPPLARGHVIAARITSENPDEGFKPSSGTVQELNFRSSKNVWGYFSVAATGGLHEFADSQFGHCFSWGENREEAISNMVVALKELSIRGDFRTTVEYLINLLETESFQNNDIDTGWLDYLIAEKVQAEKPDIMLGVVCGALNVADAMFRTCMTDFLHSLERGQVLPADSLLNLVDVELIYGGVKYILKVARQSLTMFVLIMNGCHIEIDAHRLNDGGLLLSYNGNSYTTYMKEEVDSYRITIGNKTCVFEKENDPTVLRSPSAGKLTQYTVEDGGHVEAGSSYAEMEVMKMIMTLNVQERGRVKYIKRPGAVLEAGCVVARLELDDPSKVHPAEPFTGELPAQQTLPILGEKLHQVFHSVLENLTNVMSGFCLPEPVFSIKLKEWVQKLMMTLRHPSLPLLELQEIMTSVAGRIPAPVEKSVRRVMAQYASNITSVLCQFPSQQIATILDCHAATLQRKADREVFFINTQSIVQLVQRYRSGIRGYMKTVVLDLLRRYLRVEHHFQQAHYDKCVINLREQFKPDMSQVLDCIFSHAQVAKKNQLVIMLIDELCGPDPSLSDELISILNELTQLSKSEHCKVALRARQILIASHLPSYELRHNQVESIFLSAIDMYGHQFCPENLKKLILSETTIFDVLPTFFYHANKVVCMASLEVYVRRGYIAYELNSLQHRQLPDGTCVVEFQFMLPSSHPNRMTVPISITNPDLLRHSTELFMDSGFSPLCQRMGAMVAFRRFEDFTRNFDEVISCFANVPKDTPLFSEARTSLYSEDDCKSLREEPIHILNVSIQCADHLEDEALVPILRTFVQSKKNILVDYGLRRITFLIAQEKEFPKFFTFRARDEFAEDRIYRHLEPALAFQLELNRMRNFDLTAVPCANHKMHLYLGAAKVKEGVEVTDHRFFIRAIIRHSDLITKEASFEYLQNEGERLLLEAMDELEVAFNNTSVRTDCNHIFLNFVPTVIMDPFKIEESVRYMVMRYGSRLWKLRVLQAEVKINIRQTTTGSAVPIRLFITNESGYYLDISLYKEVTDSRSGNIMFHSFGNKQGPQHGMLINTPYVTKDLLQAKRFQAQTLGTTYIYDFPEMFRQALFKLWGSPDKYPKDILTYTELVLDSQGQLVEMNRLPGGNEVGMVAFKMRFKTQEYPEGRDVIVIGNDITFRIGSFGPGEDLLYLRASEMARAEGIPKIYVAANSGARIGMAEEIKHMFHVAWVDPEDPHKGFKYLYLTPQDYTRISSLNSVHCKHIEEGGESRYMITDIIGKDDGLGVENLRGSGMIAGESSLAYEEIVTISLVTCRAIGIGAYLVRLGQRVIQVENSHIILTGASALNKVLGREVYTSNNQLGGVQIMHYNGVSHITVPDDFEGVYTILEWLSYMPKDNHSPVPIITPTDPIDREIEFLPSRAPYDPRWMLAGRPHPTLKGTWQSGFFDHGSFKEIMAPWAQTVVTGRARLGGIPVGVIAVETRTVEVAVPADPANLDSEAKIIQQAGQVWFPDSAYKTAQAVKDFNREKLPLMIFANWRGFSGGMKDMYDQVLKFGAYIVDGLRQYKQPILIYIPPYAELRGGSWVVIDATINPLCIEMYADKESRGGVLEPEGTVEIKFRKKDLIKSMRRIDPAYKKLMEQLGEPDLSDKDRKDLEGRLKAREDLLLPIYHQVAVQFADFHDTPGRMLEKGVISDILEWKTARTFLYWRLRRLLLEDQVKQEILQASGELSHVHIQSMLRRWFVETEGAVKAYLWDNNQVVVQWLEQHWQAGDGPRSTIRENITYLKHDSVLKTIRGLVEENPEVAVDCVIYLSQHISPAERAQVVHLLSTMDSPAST

[9] = 100 mg/kg oral, 14 days, 1 administration per day
[10] = 100 mg/kg oral, 14 days, 2 administrations per day
[11] = 40 mg/kg oral, 20 days, 1 administration per day
[12] = 80 mg/kg oral, 14 days, 2 administrations per day
[13] = 80 mg/kg oral, 20 days, 1 administration per day

CO[C@]1(C)CC[C@]2(CC1)NC(=O)C(c1cc(-c3ccc(Cl)cc3)ccc1C)=C2O [Example V.1-a, (5r,8r)-3-(4′-Chloro-4-methylbiphenyl-3-yl)-4-hydroxy-8-methoxy-8-methyl-1-azaspiro[4.5]dec-3-en-2-one]
IC50 [1]: 0.108 µM and 0.182 µM and 0.132 µM and 0.097 µM and 0.055 µM and 0.104 µM and 0.213 µM and 0.137 µM and 0.151 µM and 0.081 µM and 0.091 µM and 0.147 µM and 0.158 µM
Selectivity ACC1 vs. ACC2 (mean of the individual measurements ± standard deviation) [2]: 28.2 ± 8.5
CLplasma [3]: 0.15 mL/min/kg
Vss [3]: 0.3 L/kg
F [3]: 83%
t½ [3]: 28 h
Deaths ([4]; 25 mg/kg oral): 0 of 4
Deaths ([4]; 50 mg/kg oral): 0 of 4
Deaths ([4]; 100 mg/kg oral): 0 of 4
MTD at 21 days [4]: > 100 mg/kg
Deaths [5, 9]: 0 of 9
T/C [5, 9]: 0.30
Deaths [5, 10]: 2 of 9
T/C [5, 10]: 0.15
tolerability (good: body weight change <=minus 10% and 100% survival) ([5]; 100 mg/kg, administration 2 times per day): no good tolerability
tolerability (good: body weight change <=minus 10% and 100% survival) ([5]; 100 mg/kg, administration once per day): good tolerability
ther. AUC (mouse) ([6]; dosage (mouse) 100 mg/kg 1 × per day): 984 µg·h/mL
ther. AUC (mouse) ([6]; dosage (mouse) 100 mg/kg 2 × per day): 1495 µg·h/mL
calc. AUC (human) ([7]; from mouse dosage 100 mg/kg 1 × per day): 6494 µg·h/mL
calc. AUC (human) ([7]; from mouse dosage 100 mg/kg 2 × per day): 9867 µg·h/mL
pred. CL (human) [7]: 0.05 mL/min/kg
IC50 [8]: 3.13 µM and 3.93 µM and 4.54 µM and 2.53 µM and 2.33 µM and 2.51 µM and 3.36 µM and 2.75 µM and 2.03 µM and 2.86 µM and 3.32 µM and 5.14 µM and 5.2 µM
IC50 ([8]; listed as V.3-a): 3.13 µM and 3.93 µM and 4.54 µM and 2.53 µM and 2.33 µM and 2.51 µM and 3.36 µM and 2.75 µM and 2.03 µM and 2.86 µM and 3.32 µM and 5.14 µM and 5.2 µM

CO[C@]1(C)CC[C@]2(CC1)NC(=O)C(c1cc(-c3ccc(Cl)c(F)c3)ccc1C)=C2O [Example V.2-a, (5r,8r)-3-(4′-Chloro-3′-fluoro-4-methylbiphenyl-3-yl)-4-hydroxy-8-methoxy-8-methyl-1-azaspiro[4.5]dec-3-en-2-one]
IC50 ([1]; listed as V.4-a): 83 nM and 249 nM and 63 nM and 67 nM and 154 nM and 184 nM (2×) and 90 nM and 87 nM and 75 nM
IC50 [1]: 83 nM and 249 nM and 63 nM and 67 nM and 154 nM and 184 nM (2×) and 90 nM and 87 nM and 75 nM
Selectivity ACC1 vs. ACC2 (mean of the individual measurements ± standard deviation) [2]: 57.2 ± 6.4
Selectivity ACC1 vs. ACC2 (mean of the individual measurements ± standard deviation) ([2]; listed as V.4-a): 57.2 ± 26.4
CLplasma [3]: 0.217 mL/min/kg
Vss [3]: 0.51 L/kg
F [3]: 71%
t½ [3]: 33 h
Deaths ([4]; 10 mg/kg oral): 0 of 4
Deaths ([4]; 20 mg/kg oral): 0 of 4
Deaths ([4]; 40 mg/kg oral): 0 of 4
Deaths ([4]; 80 mg/kg oral): 0 of 4
MTD at 21 days [4]: > 80 mg/kg
Deaths [5, 11]: 0 of 9
T/C [5, 11]: 0.71
Deaths [5, 12]: 1 of 9
T/C [5, 12]: 0.27
Deaths [5, 13]: 0 of 9
T/C [5, 13]: 0.44
tolerability (good: body weight change <=minus 10% and 100% survival) ([5]; 80 mg/kg, administration 2 times per day): no good tolerability
tolerability (good: body weight change <=minus 10% and 100% survival) ([5]; 80 mg/kg, administration once per day): good tolerability
ther. AUC (mouse) ([6]; dosage (mouse) 80 mg/kg 1 × per day): 544 µg·h/mL
ther. AUC (mouse) ([6]; dosage (mouse) 80 mg/kg 2 × per day): 672 µg·h/mL
calc. AUC (human) ([7]; from mouse dosage 80 mg/kg 1 × per day): 3737 µg·h/mL
calc. AUC (human) ([7]; from mouse dosage 80 mg/kg 2 × per day): 4702 µg·h/mL
pred. CL (human) [7]: 0.1 mL/min/kg
IC50 [8]: 9.56 µM and 9.2 µM and 4.99 µM and 5.8 µM and 8.63 µM and 7.81 µM and 8.81 µM and 3.99 µM and 2.14 µM and 2.9 µM
IC50 ([8]; listed as V.4-a): 9.56 µM and 9.2 µM and 4.99 µM and 5.8 µM and 8.63 µM and 7.81 µM and 8.81 µM and 3.99 µM and 2.14 µM and 2.9 µM
